In one data set the test system is HepG2 liver cancer cells. The data set can be described thus: MTT assay for cytotoxic screening, HepG2. Type of data set: cell-based, human. The settings on record: mean ± SE, n = 3. The procedure:
The in vitro anti-cancer activity was assessed using the MTT assay. […] Staurosporine and 5-FU were used as reference drugs. HepG2 cells (1 × 10^4 cells/well, 96-well plate) were maintained in DMEM media supplemented with 2mML-glutamine (Lonza, Verviers, Belgium) and 10% FBS (Sigma, St. Louis, MO, USA), 1% Penicillin/Streptomycin (Lonza, Verviers, Belgium) according to the routine culture work. Cultures were incubated for 48 h with serial dilutions (0.01, 0.1, 1, 10, 100 µM) of the tested compounds. Finally, cell viability was determined by measuring the absorbance λ570 nm according to the following formula: % of cell viability = (A sapmple/A control) ×100, then IC50 calculation was calculated using GraphPad Prism 7 software.

Data set [1] concerns THLE-2 normal liver cells. The data set can be described thus: MTT assay, normal liver cells. Type of data set: cell-based. Particulars: n = 3. On the technique in general: Tetrazolium assays rely on reduction of a dye to a coloured formazan, in cell work by metabolically active cells.
A short description of data set [2]: Serum biochemical parameters in mice. Format: in vivo. Particulars: SEC-bearing mice, 6 mg/Kg BW. The procedure:
(§1) We randomly divided 50 mice into groups 5 groups (10 mice in each group): normal control (I) (mice injected intraperitoneally with the same volume of solvent for 14 consecutive days); group II, a group of normal mice treated with compound 4 (mice injected intraperitoneally with newly produced compound 4 at a dose of 6 mg/kg per day for 14 days); group III, solid tumor group (mice were implanted with solid tumor); group IV, group were treated with 5-FU (after 10 days of tumor implantation, mice were treated with 6 mg/kg only once); and group V, solid tumor group were treated with compound 4 (after 10 days of tumor implantation, mice were treated with 6 mg/kg only once). after one day of the previous treatment, 10 mice from each group were sacrificed and tumor weight, tumor volume (length and width of solid femoral tumor), blood and liver samples were obtained from each group. A portion of each blood sample taken was used for complete blood count (CBC) and the rest was centrifuged to obtain the serum. Serum was used for biochemical parameter estimation. The livers were rapidly dissected, washed with isotonic saline, and dried. The experiment design is summarized in Supplementary Figure S3.
Evaluation of the activities of aspartate aminotransferase (AST) and alanine aminotransferase (ALT) using a commercial kit (ELITech Clinical Systems, France). The serum albumin level was measured using a kit obtained from STANBIO Company (USA). A commercial kit from the BioDiagnostic Company (Cairo, Egypt) was used to evaluate creatinine and urea levels.

A short description of data set [3]: Hematological parameters (CBC) in mice. Format: in vivo. Particulars: SEC-bearing mice, 6 mg/Kg BW. On the procedure:
as §1
(§2) Complete blood counts (CBCs) were counted using an AbbottCELLDYN®1800 Automated Hematology Analyzer (Abbott Park, IL, USA) equipped with an off-the-shelf kit (Abbott Laboratories, Abbott Park, IL, USA). For microscopic histopathological examination, tumor and kidney slices were maintained in 10% formalin, dehydrated with graduated alcohol, embedded in paraffin sections, H&E stained, and hematoxylin stained.

Data set [4] can be described thus: Histopathological examination of liver and kidney (H&E). Type of data set: in vivo, mice. The settings on record: SEC-bearing mice treated. On the procedure:
as §1, §2
Specimens from mice liver cells were fixed in 10% formalin saline. Then, the samples were dehydrated with ascending series of ethanol and embedded in paraffin. A […] thick section was stained with hematoxylin and eosin and examined under a light microscope.

The subject of data set [5] is Solid Ehrlich carcinoma (SEC). Nature of the data set: In vivo anti-tumor assay: tumor volume and tumor inhibition ratio. The settings on record: SEC-bearing mice, 6 mg/kg; SEC control 5802 mm^3. The procedure:
We used adult Swiss albino female mice with average body weight 18–23 g obtained from Theodor Bilharzia Research Institute in Giza, Egypt. Mice were kept under constant conditions of a 12 h light–dark cycle at temperatures below controlled moisture conditions (22 ± 2 °C) with standard laboratory mouse nutrition and water entries. Approval for the experimental protocol was provided from the ethical committee of Suez Canal University for this experimental protocol (approval number REC-06-2020, Faculty of Science, Suez Canal University). Mice were adapted for approximately 10 days before use in the experiment.
Solid Ehrlich carcinoma (SEC) was obtained from the National Cancer Institute (University of Cairo, Egypt). The tumor cell line proliferated in mice after serial implantation of the peritoneal cavity (I.P.) in 0.2 mL of physiological saline containing 1 × 10^6 viable cells for 24 h. […]
We measured the length and width of the tumor using a digital Vernier clipper (Tricle Brand, Shanghai, China), then we calculate the tumor volume using the formula: V = (L × W × W)/2, where V is tumor volume, W is tumor width, and L is tumor length, and calculated the tumor inhibition ratio% using the formula: TIR %= (C − T)/C × 100, where T represents mean tumor volume of treated group and C represents mean tumor volume of the control group.

Where [6] appears, read: Homo sapiens, THLE-2, mean ± SE.

Entries after “also recorded” stand apart in the source; their conditions may differ.

A word on the IC50: it is the midpoint of a concentration-inhibition curve. A high value points to weaker potency.

`COc1ccc(/C=C2\C(=O)NC(=S)N2c2ccccc2)cc1` [Compound 1, (E)-5-(4-Methoxybenzylidene)-1-phenyl-2-thioxoimidazolidin-4-one] registered an IC50 in the data set with HepG2 liver cancer cells (Homo sapiens, HepG2, 48 h) of 27.8 ± 0.94 µM.

`O=C1NC(=S)N(c2ccccc2)/C1=C/c1cc2ccccc2[nH]1` [Compound 2, (E)-5-((1H-Indol-2-yl)methylene)-1-phenyl-2-thioxoimidazolidin-4-one]: the IC50 came to 0.18 ± 0.03 µM in the data set with HepG2 liver cancer cells (Homo sapiens, HepG2, 48 h) and 16.9 ± 1.11 µM in data set [1] (setting [6]).

`CN1C(=S)NC(=O)/C1=C\c1ccc(N(C)C)cc1` [Compound 3, (E)-5-(4-(Dimethylamino)benzylidene)-1-methyl-2-thioxoimidazolidin-4-one] had an IC50 in the data set on HepG2 liver cancer cells (Homo sapiens, HepG2, 48 h) of 8.93 ± 0.75 µM.

With `CN1C(=S)N(CCN2CCOCC2)C(=O)/C1=C\c1ccc2c(c1)OCO2` [Compound 5, (E)-5-(3,4-Methylenedioxybenzylidene)-3-[2-(4-morpholino)ethyl]-1-methyl-2-thioxo-imidazolidin-4-one], the half-inhibitory concentration (IC50) with HepG2 liver cancer cells (Homo sapiens, HepG2, 48 h) came to 1.94 ± 0.09 µM.

With `O=c1[nH]cc(F)c(=O)[nH]1` [Compound 5-FU, reference compound], the Creatinine in data set [2] is on record as 0.8 ± 0.1 mg/dL. Also, the Albumin in data set [2] (SEC control 4.01 ± 0.4) was 4.1 ± 0.3 g/dL. Further, the “Total Protein” value in data set [2] (SEC control 6.6 ± 0.4) worked out at 7.2 ± 0.4 g/dL. The molecule further had a Urea in data set [2] (SEC control 25.2 ± 2.3) of 26.1 ± 2.7 mg/dL. Besides, the AST in data set [2] (SEC control 48.9 ± 5.5) came to 38 ± 4.6 U/L. For the same molecule, the ALT in data set [2] (SEC control 50 ± 2.7) turned out to be 39.1 ± 3.6 U/L. The “RBC’s count” value in data set [3] (SEC control 7.52 ± 0.5) is 7.5 ± 0.8 ×10^6/µL. For the same molecule, in data set [3] (SEC control 11.8 ± 0.8, mean ± SE n = 9), the Hemoglobin was found to be 10.6 ± 1.1 g/dL. Further, the “WBC’s count” value in data set [3] (SEC control 16.5 ± 3.4) is reported as 13.1 ± 4.1 ×10^3/µL. Also, in data set [4], the kidney histopathology result is “moderate improvement; also recorded: few tubules show evidence of renal acute tubular injury ATI”; the liver histopathology result is “Hydropic degeneration of hepatocytes, nuclear pyknosis, and karyolysis still occurred”. The IC50 in the data set on HepG2 liver cancer cells (48 h) worked out at 5.18 ± 0.53 µM. The IC50 in data set [1] (mean ± SE) was determined as 43 ± 1.29 µM. The “tumor volume on the final day” value in data set [5] came to 4177 mm^3.

In the case of `C=CCN1C(=O)/C(=C\c2ccc(C)cc2)NC1=S` [Compound 6, (E)-3-Allyl-5-(4-methylbenzylidene)-2-thioxoimidazolidin-4-one], the half-inhibitory concentration (IC50) with HepG2 liver cancer cells (Homo sapiens, HepG2, 48 h) amounted to 0.61 ± 0.08 µM; in data set [1] (setting [6]), 35.1 ± 1.33 µM.

Turning to `O=C1/C(=C\c2cccs2)NC(=S)N1c1ccccc1` [Compound 7, (E)-3-Phenyl-5-(thiophen-2-ylmethylene)-2-thioxoimidazolidin-4-one], the IC50 in the data set on HepG2 liver cancer cells (Homo sapiens, HepG2, 48 h) was 0.41 ± 0.009 µM; in data set [1] (setting [6]), 15.4 ± 0.74 µM.

In the data set with HepG2 liver cancer cells (Homo sapiens, HepG2, 48 h), `CC(C)C1NC(=S)N(CN2CCOCC2)C1=O` (stereo not drawn) [Compound 10, 5-Isopropyl-3-(morpholinomethyl)-2-thioxoimidazolidin-4-one] showed a concentration for half-maximal inhibition (IC50) of 64.8 ± 1.63 µM.

The molecule `CC(C)C1(CN2CCCCC2)NC(=S)N(CN2CCCCC2)C1=O` (stereo not drawn) [Compound 11, 5-Isopropyl-3,5-bis(piperidin-1-ylmethyl)-2-thioxoimidazolidin-4-one] returned a 50% inhibitory concentration (IC50) in the data set on HepG2 liver cancer cells (Homo sapiens, HepG2, 48 h) of 1.14 ± 0.05 µM.

For `CC(C)CC1(CN2CCOCC2)NC(=S)N(CN2CCOCC2)C1=O` (stereo not drawn) [Compound 12, 5-Isobutyl-3,5-bis(morpholinomethyl)-2-thioxoimidazolidin-4-one], half-maximal inhibition in the data set on HepG2 liver cancer cells (Homo sapiens, HepG2, 48 h) (IC50) was put at 1.13 ± 0.066 µM.

As for `CN[C@@H]1C[C@H]2O[C@@](C)([C@@H]1OC)n1c3ccccc3c3c4c(c5c6ccccc6n2c5c31)C(=O)NC4` [Staurosporine, reference compound], the IC50 with HepG2 liver cancer cells (Homo sapiens, HepG2, 48 h) was 5.07 ± 0.22 µM.

Source of the values: publication PMC8746798, “Evaluation of 2-Thioxoimadazolidin-4-one Derivatives as Potent Anti-Cancer Agents through Apoptosis Induction and Antioxidant Activation: In Vitro and In Vivo Approaches” (Molecules, 2021).
